We go through 21 compounds from US8748417B2, “Amino-pyrrolidine-azetidine diamides as monoacylglycerol lipase inhibitors” (Janssen Pharmaceutica, NV, priority 2010, dated 2014).

For assay [1], the target named is T1, purified wild type MGL (wt-MGLL 6H-11-313) (Homo sapiens, UniProt Q99685).
T1 construct: purified wild type MGL (wt-MGLL 6H-11-313)
T1 sequence (Q99685 1-303): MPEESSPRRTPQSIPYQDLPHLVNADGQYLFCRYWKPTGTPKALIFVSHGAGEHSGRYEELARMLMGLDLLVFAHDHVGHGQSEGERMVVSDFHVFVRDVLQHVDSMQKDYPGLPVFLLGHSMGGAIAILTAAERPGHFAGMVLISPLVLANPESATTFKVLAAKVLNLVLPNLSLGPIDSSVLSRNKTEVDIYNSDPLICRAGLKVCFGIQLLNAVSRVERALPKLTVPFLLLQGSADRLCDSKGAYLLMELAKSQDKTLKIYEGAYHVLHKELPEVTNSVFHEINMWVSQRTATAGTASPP
Kind of assay: MGL enzyme activity assay (4MU-B cleavage), wild type MGL. The conditions noted are these: wild type MGL 5 nM, 4MU-B 10 μM, 37° C.; read-out: MGL wild type inh IC50. The format is biochemical. On the procedure: All rate-based assays were performed in black 384-well polypropylene PCR microplates (Abgene) in a total volume of 30 μL. Substrate 4-methylumbelliferyl butyrate (4MU-B; Sigma) and either purified mutant MGL (mut-MGLL 11-313 L179S L186S) or purified wild type MGL (wt-MGLL 6H-11-313) were diluted separately into 20 mM PIPES buffer (pH=7.0), containing 150 mM NaCl and 0.001% Tween 20. Compounds of Formula (I) were pre-dispensed (50 nL) into the assay plate using a Cartesian Hummingbird prior to adding 4MU-B (25 μL of 1.2× solution to a final concentration of 10 μM) followed by enzyme (5 μL of a 6× solution to a final concentration of 5 nM) to initiate the reaction. Final compound concentrations ranged from 17 to 0.0003 μM. The fluorescence change due to 4MU-B cleavage was monitored with excitation and emission wavelengths of 335 and 440 nm, respectively, and a bandwidth of 10 nm (Safire^2, Tecan) at 37° C. for 5 min.
The IC50 values for the following compounds were determined using Microsoft Office Excel from a fit of the equation to the concentration-response plot of the fractional activity as a function of inhibitor concentration.

Assay [2] relates to MGL (rat brain homogenate). Put plainly: 2-AG accumulation assay in rat brain homogenate. The assay is classed as biochemical. Conditions: compound 1 μM, percent of vehicle 2-AG accumulation. On the procedure:
After a 15-min incubation time at 37° C., CaCl2 (final concentration=10 mM) was added and then incubated for 15 min at 37° C. in a total volume of 5 mL. The reactions were stopped with 6 mL organic solvent extraction solution of 2:1 chloroform/methanol. Accumulated 2-AG in the organic phase was measured by a HPLC/MS method, according to the following equation: percent vehicle=(2-AG accumulation in the presence of compound/2-AG accumulation in vehicle)×100.

For orientation: IC50 means the concentration needed to halve the response being measured. Regarding `O=C(c1ccc(C(O)c2ccc(C(F)(F)F)cc2)cc1)N1CC(N[C@H]2CCN(C(=O)c3ccccc3)C2)C1` (stereo partly drawn) [Cpd 67], the IC50 in assay [1] amounted to 9.7 nM. Moreover, the “Rat Brain 2AG % VehCntrl (%) @1 μM” value in assay [2] is given as 928%.

Consider `CC(C)=Cc1c(C(=O)N2CC(N[C@H]3CCN(C(=O)c4ccccc4)C3)C2)sc2cc(C(F)(F)F)ccc12` [Cpd 76, (3S)-N-(1-{[3-(2-Methylprop-1-en-1-yl)-6-(trifluoromethyl)-1-benzothiophen-2-yl]carbonyl}azetidin-3-yl)-1-(phenylcarbonyl)pyrrolidin-3-amine], for which the half-inhibitory concentration (IC50) in assay [1] worked out at 61.8 nM. In addition, the “Rat Brain 2AG % VehCntrl (%) @1 μM” value in assay [2] was 522%.

Regarding `O=C(c1ccc(Cc2ccc(C(F)(F)F)cc2)cc1)N1CC(N[C@H]2CCN(C(=O)c3ccccc3)C2)C1` [Cpd 77, (S)-(3-((1-Benzoylpyrrolidin-3-yl)amino)azetidin-1-yl)(4-(4-(trifluoromethyl)benzyl)phenyl)methanone], in assay [1], the concentration for half-maximal inhibition (IC50) is under 5 nM. Further, in assay [2], the “Rat Brain 2AG % VehCntrl (%) @1 μM” value is given as 506%.

In the case of `Cc1c(C(=O)N2CC(N[C@H]3CCN(C(=O)c4ccccc4)C3)C2)sc2cc(C(F)(F)F)ccc12` [Cpd 80, (3S)-N-(1-{[3-Methyl-6-(trifluoromethyl)-1-benzothiophen-2-yl]carbonyl}azetidin-3-yl)-1-(phenylcarbonyl)pyrrolidin-3-amine], the IC50 in assay [1] came to 22.6 nM. In assay [2], the “Rat Brain 2AG % VehCntrl (%) @1 μM” value turned out to be 174%.

Regarding `Cc1c(C(=O)N2CC(N[C@H]3CCN(C(=O)c4nccs4)C3)C2)sc2ccc(Cl)cc12` [Cpd 84, (3S)-N-{1-[(5-Chloro-3-methyl-1-benzothiophen-2-yl)carbonyl]azetidin-3-yl}-1-(1,3-thiazol-2-ylcarbonyl)pyrrolidin-3-amine], the IC50 in assay [1] is under 5 nM. Further, the “Rat Brain 2AG % VehCntrl (%) @1 μM” value in assay [2] is reported as 433%.

Consider `Cc1c(C(=O)N2CC(N[C@H]3CCN(C(=O)c4cscn4)C3)C2)sc2ccc(Cl)cc12` [Cpd 85, (3S)-N-{1-[(5-Chloro-3-methyl-1-benzothiophen-2-yl)carbonyl]azetidin-3-yl}-1-(1,3-thiazol-4-ylcarbonyl)pyrrolidin-3-amine], for which the IC50 in assay [1] turned out to be 48.2 nM. Also, in assay [2], the “Rat Brain 2AG % VehCntrl (%) @1 μM” value is reported as 335%.

Turning to `Cc1c(C(=O)N2CC(N[C@H]3CCN(C(=O)c4nccs4)C3)C2)sc2cc(F)ccc12` [Cpd 87, (3S)-N-{1-[(6-Fluoro-3-methyl-1-benzothiophen-2-yl)carbonyl]azetidin-3-yl}-1-(1,3-thiazol-2-ylcarbonyl)pyrrolidin-3-amine], the half-maximal inhibitory concentration (IC50) in assay [1] worked out at 34.1 nM. The “Rat Brain 2AG % VehCntrl (%) @1 μM” value in assay [2] was 385%.

As to `Cc1c(C(=O)N2CC(N[C@H]3CCN(C(=O)c4nccs4)C3)C2)sc2ccc(-c3cccc(C(F)(F)F)c3)cc12` [Cpd 90, (3S)-N-[1-({3-Methyl-5-[3-(trifluoromethyl)phenyl]-1-benzothiophen-2-yl}carbonyl)azetidin-3-yl]-1-(1,3-thiazol-2-ylcarbonyl)pyrrolidin-3-amine], the IC50 in assay [1] was under 5 nM. Further, the “Rat Brain 2AG % VehCntrl (%) @1 μM” value in assay [2] is recorded as 1130%.

Take `Cc1c(C(=O)N2CC(N[C@H]3CCN(C(=O)c4nccs4)C3)C2)sc2ccc(-c3ccccc3)cc12` [Cpd 92, (3S)-N-{1-[(3-Methyl-5-phenyl-1-benzothiophen-2-yl)carbonyl]azetidin-3-yl}-1-(1,3-thiazol-2-ylcarbonyl)pyrrolidin-3-amine]: the IC50 in assay [1] is under 5 nM. The “Rat Brain 2AG % VehCntrl (%) @1 μM” value in assay [2] is 624%.

With `Cc1c(C(=O)N2CC(N[C@H]3CCN(C(=O)c4ccccc4)C3)C2)sc2ccc(-c3cccc(F)c3)cc12` [Cpd 93, (3S)-N-(1-{[5-(3-Fluorophenyl)-3-methyl-1-benzothiophen-2-yl]carbonyl}azetidin-3-yl)-1-(phenylcarbonyl)pyrrolidin-3-amine], the 50% inhibitory concentration (IC50) in assay [1] is under 5 nM. Further, the “Rat Brain 2AG % VehCntrl (%) @1 μM” value in assay [2] was 963%.

In the case of `Cc1c(C(=O)N2CC(N[C@H]3CCN(C(=O)c4ccccc4)C3)C2)sc2ccc(-c3ccc(F)cc3)cc12` [Cpd 94, (3S)-N-(1-{[5-(4-Fluorophenyl)-3-methyl-1-benzothiophen-2-yl]carbonyl}azetidin-3-yl)-1-(phenylcarbonyl)pyrrolidin-3-amine], in assay [1], the concentration for half-maximal inhibition (IC50) was under 5 nM. Also, the “Rat Brain 2AG % VehCntrl (%) @1 μM” value in assay [2] turned out to be 445%.

As for `O=C(c1cc2ccc(-c3cccc(C(F)(F)F)c3)cc2s1)N1CC(N[C@H]2CCN(C(=O)c3nccs3)C2)C1` [Cpd 99, (3S)-1-(1,3-Thiazol-2-ylcarbonyl)-N-[1-({6-[3-(trifluoromethyl)phenyl]-1-benzothiophen-2-yl}carbonyl)azetidin-3-yl]pyrrolidin-3-amine], in assay [1], the IC50 is under 5 nM. Besides, the “Rat Brain 2AG % VehCntrl (%) @1 μM” value in assay [2] amounted to 644%.

On to `O=C(c1cscn1)N1CC[C@H](NC2CN(C(=O)c3cc4ccc(-c5cccc(C(F)(F)F)c5)cc4s3)C2)C1` [Cpd 100, (3S)-1-(1,3-Thiazol-4-ylcarbonyl)-N-[1-({6-[3-(trifluoromethyl)phenyl]-1-benzothiophen-2-yl}carbonyl)azetidin-3-yl]pyrrolidin-3-amine], for which the 50% inhibitory concentration (IC50) in assay [1] was under 5 nM. For the same compound, in assay [2], the “Rat Brain 2AG % VehCntrl (%) @1 μM” value was found to be 546%.

For the compound `O=C(c1ccc2c(-c3ccc(C(F)(F)F)cc3)c[nH]c2c1)N1CC(N[C@H]2CCN(C(=O)c3ccccc3)C2)C1` [Cpd 101, (3S)-1-(Phenylcarbonyl)-N-[1-({3-[4-(trifluoromethyl)phenyl]-1H-indol-6-yl}carbonyl)azetidin-3-yl]pyrrolidin-3-amine], in assay [1], the IC50 turned out to be 44 nM. In assay [2], the “Rat Brain 2AG % VehCntrl (%) @1 μM” value was 141%.

Consider `O=C(c1ccc2c(-c3ccc(C(F)(F)F)cc3)c[nH]c2c1)N1CC(N[C@H]2CCN(C(=O)c3nccs3)C2)C1` [Cpd 104, (3S)-1-(1,3-Thiazol-2-ylcarbonyl)-N-[1-({3-[4-(trifluoromethyl)phenyl]-1H-indol-6-yl}carbonyl)azetidin-3-yl]pyrrolidin-3-amine], for which, in assay [1], the half-maximal inhibitory concentration (IC50) came out at 22.2 nM. For the same compound, the “Rat Brain 2AG % VehCntrl (%) @1 μM” value in assay [2] was found to be 195%.

Regarding `O=C(c1ccc2c(-c3cccc(C(F)(F)F)c3)c[nH]c2c1)N1CC(N[C@H]2CCN(C(=O)c3cscn3)C2)C1` [Cpd 106, (3S)-1-(1,3-Thiazol-4-ylcarbonyl)-N-[1-({3-[3-(trifluoromethyl)phenyl]-1H-indol-6-yl}carbonyl)azetidin-3-yl]pyrrolidin-3-amine], in assay [1], the IC50 was under 5 nM. For the same compound, the “Rat Brain 2AG % VehCntrl (%) @1 μM” value in assay [2] is reported as 389%.

On to `O=C(c1ccc(-c2cccc(C(F)(F)F)c2)cc1)N1CC(N[C@H]2CCN(C(=O)c3nccs3)C2)C1` [Cpd 113, (3S)-1-(1,3-Thiazol-2-ylcarbonyl)-N-(1-{[3′-(trifluoromethyl)biphenyl-4-yl]carbonyl}azetidin-3-yl)pyrrolidin-3-amine], for which, in assay [1], the 50% inhibitory concentration (IC50) is under 5 nM. In addition, in assay [2], the “Rat Brain 2AG % VehCntrl (%) @1 μM” value came out at 832%.

Consider `O=C(c1ccc(-c2ccc(C(F)(F)F)cc2)cc1)N1CC(N[C@H]2CCN(C(=O)c3nccs3)C2)C1` [Cpd 115, (3S)-1-(1,3-Thiazol-2-ylcarbonyl)-N-(1-{[4′-(trifluoromethyl)biphenyl-4-yl]carbonyl}azetidin-3-yl)pyrrolidin-3-amine], for which the half-maximal inhibitory concentration (IC50) in assay [1] came out at 10 nM. Moreover, the “Rat Brain 2AG % VehCntrl (%) @1 μM” value in assay [2] was determined as 310%.

As to `O=C(c1nccs1)N1CC[C@H](NC2CN(C(=O)c3ccc(-c4cccc(C(F)(F)F)c4)cc3F)C2)C1` [Cpd 116, (3S)-N-(1-{[3-Fluoro-3′-(trifluoromethyl)biphenyl-4-yl]carbonyl}azetidin-3-yl)-1-(1,3-thiazol-2-ylcarbonyl)pyrrolidin-3-amine], the 50% inhibitory concentration (IC50) in assay [1] was under 5 nM. Besides, the “Rat Brain 2AG % VehCntrl (%) @1 μM” value in assay [2] is reported as 733%.

With `Cc1cc(-c2cccc(C(F)(F)F)c2)ccc1C(=O)N1CC(N[C@H]2CCN(C(=O)c3nccs3)C2)C1` [Cpd 117, (3S)-N-(1-{[3-Methyl-3′-(trifluoromethyl)biphenyl-4-yl]carbonyl}azetidin-3-yl)-1-(1,3-thiazol-2-ylcarbonyl)pyrrolidin-3-amine], the IC50 in assay [1] was under 5 nM. The “Rat Brain 2AG % VehCntrl (%) @1 μM” value in assay [2] was 400%.

Take `O=C(c1ccc2c(ccn2-c2ccc(C(F)(F)F)cc2)c1)N1CC(N[C@H]2CCN(C(=O)c3nccs3)C2)C1` [Cpd 118, (3S)-1-(1,3-Thiazol-2-ylcarbonyl)-N-[1-({1-[4-(trifluoromethyl)phenyl]-1H-indol-5-yl}carbonyl)azetidin-3-yl]pyrrolidin-3-amine]: the IC50 in assay [1] is under 5 nM. Moreover, in assay [2], the “Rat Brain 2AG % VehCntrl (%) @1 μM” value is listed as 626%.
